According to US10023587B2, “Oxabicycloheptanes and oxabicycloheptenes, their preparation and use” (LIXTE BIOTECHNOLOGY, INC., priority 2007, dated 2018):
In brackets after ≈: the same amount, converted by molar mass. Read-outs that look alike come from different tables or passages of the source.

Legend:
MDA-MB-231 cells = assay: CellTiter-Glo assay, MDA-MB-231; type: cell-based; settings: Homo sapiens; MDA-MB-231 Breast, 72 hr; read-out: IC50 (50% Inhibition of Proliferation)
Experimental: (§1) MDA-MB-231, HT-29, NCI-H460, NCI-H522, NCI-H69, GXF-209, HepG2, OVAR-3, PANC-1, DU-145, LNCAP, HL-60, K-562, and MOLT-4 cell lines were either obtained from the American Type Culture Collection (ATCC; Manassas, Va.), or from the National Cancer Institute (NCI; Frederick, Md.). RPMI-1640 media, L-glutamine dipeptide (HyQ SG-200), and HEPES were obtained from Hyclone (Logan, Utah).
(§2) All cell lines were routinely cultured twice weekly in RPMI-1640 medium supplemented with 2 mM L-glutamine dipeptide, 10 mM HEPES, and 10% FBS.
(§3) The adherent cell lines MDA-MB-231, HT-29, NCI-H460, NCI-H522, GXF-209, HepG2, OVAR-3, PANC-1, DU-145, and LNCAP cells were each seeded into two 96-well plates at 2,500 cells per well in a total volume of 50 uL and incubated in a 37° C. humidified 5% CO2 cell culture incubator overnight. The suspension cell lines NCI-H69, HL-60, K-562, and MOLT-4 were each seeded into two 96-well plates at 10,000 cell per well in a total volume of 50 uL and incubated in a 37° C. humidified 5% CO2 incubator overnight.
(§4) This was followed by making 2× stocks of the final concentrations required in RPMI-1640 medium. […]
(§5) Briefly, plates were removed from the incubator and placed on the bench at room temperatures for 30 minutes. […] Luminescence was then recorded using the PerkinElmer Microbeta scintillation and luminescence counter (Trilux).

NCI-H522 cells = assay: CellTiter-Glo assay, NCI-H522; type: cell-based; settings: Homo sapiens; NCI-H522 Lung adenoca, 72 hr; read-out: IC50 (50% Inhibition of Proliferation)
Experimental: as §1, §2, §3, §4, §5

LNCAP cells = assay: CellTiter-Glo assay, LNCAP; type: cell-based; settings: Homo sapiens; LNCAP Prostate, 72 hr; read-out: IC50 (50% Inhibition of Proliferation)
Experimental: as §1, §2, §3, §4, §5

C. albicans = assay: Antifungal susceptibility testing (broth dilution), C. albicans; type: cell-based, Candida albicans; settings: for MIC: Candida albicans, read-out: minimum inhibitory concentration (MIC)
Experimental: (§6) Anti-fungal testing was completed with a common lot for compounds 100 and 102.
(§7) A 10 mg portion of each powder was weighed out and added to 1 ml of sterile distilled water for compound 100 and DMSO for compound 102. The resulting concentration of […] was diluted to a working concentration of 640 μg/ml for each compound. All subsequent dilutions were also made using the respective diluents. Final testing concentrations ranged from 0.125-64 μg/ml.
(§8) A total of 23 isolates were tested to include 3 Candida albicans, 3 Candida glabrata, 3 Cryptococcus neoformans, 3 Aspergillus fumigatus, 3 Rhizopus oryzae, 3, Fusarium solani, 3 Pseudallescheria boydii, and 2 […] rubrum. All isolates were clinical isolates submitted to the Fungus Testing Laboratory for evaluation. Antifungal susceptibility testing was accomplished according to the methods outlined in the National Committee for Clinical Laboratory Standards, M-27A2, Reference Method for Broth Dilution Antifungal Susceptibility Testing of Yeasts; Approved Standard, and M38-A “Reference Method for Broth Dilution Antifungal Susceptibility Testing of Conidium-Forming Filamentous Fungi; Approved Standard”. This includes testing in RPMI-1640 with glutamine and without bicarbonate, an inoculum size of 0.5-2.5×10^3 for yeasts or 1-5×10^4 for moulds, and incubation at 35° C. for 24 and 48 hours.

C. neoformans = assay: Antifungal susceptibility testing (broth dilution), C. neoformans; type: cell-based, Cryptococcus neoformans; settings: for MIC: Cryptococcus neoformans, read-out: minimum inhibitory concentration (MIC)
Experimental: as §6, §7, §8

T. rubrum = assay: Antifungal susceptibility testing (broth dilution), T. rubrum; type: cell-based, Trichophyton rubrum; settings: for MIC: Trichophyton rubrum, read-out: minimum inhibitory concentration (MIC); for minimum inhibitory concentration (MIC): isolate 07-2055
Experimental: as §6, §7, §8

GBM cell line U373 = assay: cells; type: cell-based, human; settings: for Percent of Control, Observed: U373 (Table 4)
Experimental: To observe the effects Compound 100 in combination with retinoic acids, Compound 100 was combined with all-trans retinoic acid. […] The total number of cells is counted in the triplicate cultures at each dose and in controls after 7 days and the average number of cells and the standard deviation is determined.
The amount of inhibition of GBM cell growth is expressed as the proportion of the number of cells in the experimental dishes compared to the number of cells in control dishes containing only the drug vehicle and culture medium. The average percent of control is plotted and bracketed by one standard deviation calculated from the triplicate measurements.
Synergism (potentiation) of the inhibitory activity of two drugs in combination is said to be present when the percent survival in the presence of two drugs is less than the product of the percent survivals of the two drugs used alone at the same doses in the combination.

GBM cell line U87 = assay: U87 xenograft tumor growth in SCID mice; type: in vivo; settings: subcutaneous in SCID mice, ip daily for 20 days (FIG. 17)
Experimental: For in vivo experiments, subcutaneously implanted tumor cells are allowed to grow over 7 days to a size of 5-7 mm. On day 7, drug administration is begun ip daily for 20 days. The maximum perpendicular diameters of the tumor masses are measured every 2 to 5 days. On the 21st day after initiation of treatment, the animals are sacrificed and dissected free of the subcutaneous tissues and measured.

[1] = test system: 23 clinical fungal isolates; assay: Antifungal susceptibility testing, whole panel of 23 isolates; type: cell-based; settings: at the levels tested, 0.125-64 μg/ml
Experimental: as §6, §7, §8

Stability at acid pH = type: physicochemical

Structure (SMILES): CC(C)(C)OC(=O)N1CCN(C(=O)C2C(C(=O)O)[C@H]3CC[C@@H]2O3)CC1 (stereo in doubt) [Compound 102, 4-(3-Carboxy-7oxa-bicyclo[2.2.1]heptane-2-carbonyl)piperazine-1-carboxylic acid tert-butyl ester]
- IC50 (MDA-MB-231 cells): 6600 nM
- IC50 (NCI-H522 cells): 2200 nM
- IC50 (LNCAP cells): 480 nM
- MIC (C. albicans; isolate 07-3012, 24 Hours): > 64 µg/mL
- MIC (C. albicans; isolate 07-3012, 48 Hours): > 64 µg/mL
- minimum inhibitory concentration (MIC) (C. albicans; isolate 07-3006, 24 Hours): >64 µg/mL
- minimum inhibitory concentration (MIC) (C. albicans; isolate 07-3006, 48 Hours): >64 µg/mL
- minimum inhibitory concentration (MIC) (C. albicans; isolate 07-3011, 24 Hours): >64 µg/mL
- minimum inhibitory concentration (MIC) (C. albicans; isolate 07-3011, 48 Hours): >64 µg/mL
- MIC (C. neoformans; isolate 07-2665, 24 Hours): > 64 µg/mL
- MIC (C. neoformans; isolate 07-2665, 48 Hours): > 64 µg/mL
- minimum inhibitory concentration (MIC) (C. neoformans; isolate 07-2737, 24 Hours): >64 µg/mL
- minimum inhibitory concentration (MIC) (C. neoformans; isolate 07-2737, 48 Hours): >64 µg/mL
- minimum inhibitory concentration (MIC) (C. neoformans; isolate 07-2829, 24 Hours): >64 µg/mL
- minimum inhibitory concentration (MIC) (C. neoformans; isolate 07-2829, 48 Hours): >64 µg/mL
- MIC (T. rubrum; isolate 07-1743, 24 Hours): 2 µg/mL (≈ 5.64 µM)
- MIC (T. rubrum; isolate 07-1743, 48 Hours): 2 µg/mL (≈ 5.64 µM)
- minimum inhibitory concentration (MIC) (T. rubrum; 24 Hours): 2 µg/mL (≈ 5.64 µM)
- minimum inhibitory concentration (MIC) (T. rubrum; 48 Hours): 2 µg/mL (≈ 5.64 µM)
- Antifungal activity against T. rubrum (in words) (T. rubrum; testing concentrations 0.125-64 μg/ml): significant activity

Structure (SMILES): CN1CCN(C(=O)C2C(C(=O)O)[C@H]3CC[C@@H]2O3)CC1 (stereo partly drawn) [Compound 100, Endothall 4-Methylpiperazine Monoamide]
- Percent of Control, Observed (GBM cell line U373; Compound 100 1 μM): 97.9 +/− 1.0% of Control
- Percent of Control, Observed (GBM cell line U373; Compound 100 5 μM): 52.5 +/− 2.9% of Control
- activity at 1 µM (GBM cell line U373; Homo sapiens, U373 MG, 168 h, Compound 100 1 uM, U373, 7 days (Table 3), read-out: Percent of Control, Observed): 78%
- Effect on U87 xenograft tumor growth (in words) (GBM cell line U87): supresses the growth
- IC50 (MDA-MB-231 cells): 9500 nM
- IC50 (NCI-H522 cells): 3400 nM
- IC50 (LNCAP cells): 1500 nM
- MIC (C. albicans; 24 h): > 64 µg/mL
- MIC (C. albicans; 48 h): > 64 µg/mL
- minimum inhibitory concentration (MIC) (C. albicans; isolate 07-3006, 24 Hours): >64 µg/mL
- minimum inhibitory concentration (MIC) (C. albicans; isolate 07-3006, 48 Hours): >64 µg/mL
- minimum inhibitory concentration (MIC) (C. albicans; isolate 07-3011, 24 Hours): >64 µg/mL
- minimum inhibitory concentration (MIC) (C. albicans; isolate 07-3011, 48 Hours): >64 µg/mL
- MIC (C. neoformans; 24 h): > 64 µg/mL
- MIC (C. neoformans; 48 h): > 64 µg/mL
- minimum inhibitory concentration (MIC) (C. neoformans; isolate 07-2737, 24 Hours): >64 µg/mL
- minimum inhibitory concentration (MIC) (C. neoformans; isolate 07-2737, 48 Hours): >64 µg/mL
- minimum inhibitory concentration (MIC) (C. neoformans; isolate 07-2829, 24 Hours): >64 µg/mL
- minimum inhibitory concentration (MIC) (C. neoformans; isolate 07-2829, 48 Hours): >64 µg/mL
- MIC (T. rubrum; 24 h): > 64 µg/mL
- MIC (T. rubrum; 48 h): > 64 µg/mL
- minimum inhibitory concentration (MIC) (T. rubrum; 24 Hours): >64 µg/mL
- minimum inhibitory concentration (MIC) (T. rubrum; 48 Hours): >64 µg/mL
- Antifungal activity, all isolates (in words) [1]: no activity
- Stability at acid pH (in words) (Stability at acid pH): stable at acid pH
